The text below walks through data of patent US8673908B2, “Kynurenine production inhibitor” (Kyowa Hakko Kirin Co., Ltd., priority 2008, dated 2014).

Some results are limits rather than exact numbers.

For this experiment, the system named is kynurenine production in IFN-γ-treated KATO-III cells. In words: Inhibitory activity on kynurenine production (Test Example 1). The format is cell-based. Particulars: Homo sapiens, IFN-γ treatment, culture for 96 hours, read-out: IC50 value, inhibition of kynurenine production. How it is done: This assay was performed according to a method modified from the method described in the Journal of Biological Chemistry (J. Biol. Chem.), vol. 263, pp. 2041-2048 (1988). Culture of KATO-III derived from human gastric cancer cells was performed by use of RPMI 1640 (GIBCO, 11875) supplemented with 10 vol % FBS (GIBCO, 10091-148, lot. 665285). 1 μL of a DMSO solution of the test substance was diluted with 199 μL of the culture medium, and the diluted solution was added to wells of a 384 well plate (10 μL/well). Then, IFN-γ (Sigma, 1-3265) was added to the culture medium so that the concentration of IFN-γ was 31.25 ng/mL, and the KATO-III cells were suspended at 50,000 cells/ml, in the culture medium. 40 μL of the suspension was added to each well (2,000 cells/well), and culture of the KATO-III cells was performed at 37° C. under a 5% CO2 atmosphere for 96 hours. The final concentration of DMSO was limited to 0.1 vol % or less so that DMSO itself might not affect the kynurenine concentration measured by this assay. After the culture, 10 μL of a 30 w/v % aqueous trichloroacetic acid solution was added to each well, and incubation was performed at 65° C. for 30 minutes. The plate was centrifuged at 2,500×g for 5 minutes, and then 15 μL of the supernatant in each well was transferred into another 384 well plate. To each of the transferred supernatants, 15 μL of a 2 w/v % solution of p-dimethylaminobenzaldehyde in acetic acid was added, incubation was performed at 65° C. for 20 minutes, and then the absorbance at 480 nm was measured.
[formula] Sample: the absorbance value of the well to which a DMSO solution containing the test substance was added and in which cells were treated with IFN-γ. Blank: the absorbance value of the well to which only DMSO, not the test substance was added and in which cells were treated with IFN-γ. Control: the absorbance value of the well to which only DMSO, not the test substance was added and in which cells were not treated with IFN-γ.
In this assay, expression of IDO in KATO-III cells is induced by IFN-γ treatment and then kynurenine in the culture medium is quantified. It is known that the kynurenine concentration in a culture medium increases in proportion to the enzymatic activity of intracellular IDO (for example, the Journal of Biological Chemistry (J. Biol. Chem.), vol. 263, pp. 2041-2048 (1988)). […] It is known that kynurenine production is inhibited by IDO inhibitors (for example, the Journal of Clinical Investigation (J. Clin. Invest.), vol. 117, No. 5, pp. 1147-1154 […]), and thus it is expected that Compound (I) also has an inhibitory effect on IDO.
The term IC50 denotes the concentration needed to halve the response being measured. `CCCS(=O)(=O)Nc1nc2ccccc2nc1OC(c1csc(C)n1)C(F)(F)F` (stereo not drawn) [Compound 344, N-{3-[2,2,2-trifluoro-1-(2-methylthiazol-4-yl)ethoxy]-quinoxalin-2-yl}propane-1-sulfonamide]: the IC50 is under 1000 nM.

Take `O=S(=O)(Nc1nc2ccccc2nc1OC(c1ccsc1)C(F)(F)F)c1cccc(Cl)c1Cl` (stereo not drawn) [Compound 101, 2,3-dichloro-N-{3-[2,2,2-trifluoro-1-(thiophen-3-yl)-ethoxy]quinoxalin-2-yl}benzenesulfonamide]: the half-inhibitory concentration (IC50) is under 1000 nM.

For the compound `Cc1noc(C)c1S(=O)(=O)Nc1nc2ccccc2nc1OC(c1ccc(CN(C)C)cc1)C(F)(F)F` (stereo not drawn) [Compound 204, N-{3-[1-(4-((dimethylamino)methyl)phenyl)-2,2,2-trifluoroethoxy]quinoxalin-2-yl}-3,5-dimethylisoxazole-4-sulfonamide], the IC50 was under 1000 nM.

Turning to `O=S(=O)(Nc1nc2ccccc2nc1OC(c1cccnc1)C(F)(F)F)c1cccnc1` (stereo not drawn) [Compound 139, N-{3-[2,2,2-trifluoro-1-(pyridin-3-yl)ethoxy]quinoxalin-2-yl}pyridine-3-sulfonamide], the IC50 is under 1000 nM.

On to `CCCS(=O)(=O)Nc1nc2ccccc2nc1O[C@@H](C1CCOCC1)C(F)(F)F` [Compound 346, (S)—N-{3-[2,2,2-trifluoro-1-(tetrahydro-2H-pyran-4-yl)-ethoxy]quinoxalin-2-yl}propane-1-sulfonamide], for which the half-inhibitory concentration (IC50) lay in the range of 1000 to 10000 nM.

For the compound `CCCNS(=O)(=O)Nc1nc2ccccc2nc1OC(c1cncn1C)C(F)(F)F` (stereo not drawn) [Compound 282, N-{3-[2,2,2-trifluoro-1-(1-methyl-1H-imidazol-5-yl)ethoxy]-quinoxalin-2-yl}-N′-propyl-sulfuric diamide], the IC50 is under 1000 nM.

For `O=S(=O)(Nc1nc2ccccc2nc1OC(C(F)(F)F)C(F)(F)F)c1ccccc1Cl` [Compound 321, 2-chloro-N-{3-[(1,1,1,3,3,3-hexafluoropropan-2-yl)oxy]-quinoxalin-2-yl}benzenesulfonamide], the IC50 was under 1000 nM.

For `N#Cc1cccc(C(Oc2nc3ccccc3nc2NS(=O)(=O)c2ccccc2Cl)C(F)(F)F)c1` (stereo not drawn) [Compound 82, 2-chloro-N-{3-[2,2,2-trifluoro-1-(3-cyanophenyl)ethoxy]-quinoxalin-2-yl}benzenesulfonamide], the IC50 was under 1000 nM.

Regarding `CCCNS(=O)(=O)Nc1nc2ccccc2nc1OC(c1ccc[n+]([O-])c1)C(C)C` (stereo not drawn) [Compound 214, 3-{2-methyl-1-[3-(N-propylsulfamoylamino)quinoxalin-2-yloxy]propyl}pyridine 1-oxide], the half-maximal inhibitory concentration (IC50) was under 1000 nM.

In the case of `O=S(=O)(Nc1nc2ccccc2nc1OC(c1ccc(C(F)(F)F)cc1)C(F)(F)F)c1cccc(Cl)c1Cl` (stereo not drawn) [Compound 36, 2,3-dichloro-N-{3-[2,2,2-trifluoro-1-(4-trifluoromethyl-phenyl)ethoxy]quinoxalin-2-yl}benzenesulfonamide], the half-inhibitory concentration (IC50) was under 1000 nM.

Consider `CCCNS(=O)(=O)Nc1nc2ccccc2nc1OC(c1cnc(C)s1)C(F)(F)F` (stereo not drawn) [Compound 323, N-propyl-N′-{3-[2,2,2-trifluoro-1-(2-methylthiazol-5-yl)-ethoxy]quinoxalin-2-yl}sulfuric diamide], for which the IC50 is under 1000 nM.

For the compound `COc1ccc(COc2nc3cccnc3nc2NS(=O)(=O)c2cccc(Cl)c2Cl)cc1` [Compound 5], the IC50 was in the range of 1000 to 10000 nM.

Regarding `CCCNS(=O)(=O)Nc1nc2ccccc2nc1OC(c1cncs1)C(F)(F)F` (stereo not drawn) [Compound 281, N-{3-[2,2,2-trifluoro-1-(thiazol-5-yl)ethoxy]quinoxalin-2-yl}-N′-propyl-sulfuric diamide], the IC50 is under 1000 nM.

Consider `CCCS(=O)(=O)Nc1nc2ccccc2nc1OC(C(F)(F)F)C1(OC)CCOCC1` (stereo not drawn) [Compound 353, N-{3-[2,2,2-trifluoro-1-(4-methoxytetrahydro-2H-pyran-4-yl)ethoxy]quinoxalin-2-yl}propane-1-sulfonamide], for which the 50% inhibitory concentration (IC50) is under 1000 nM.

`O=S(=O)(Nc1nc2ccccc2nc1OC(c1cccnc1)C(F)(F)F)c1cccs1` (stereo not drawn) [Compound 140, N-{3-[2,2,2-trifluoro-1-(pyridin-3-yl)ethoxy]quinoxalin-2-yl}thiophene-2-sulfonamide]: the IC50 is under 1000 nM.

As for `O=S(=O)(Nc1nc2ccccc2nc1OC(c1cccnc1)C1CCOCC1)c1ccccc1Cl` (stereo not drawn) [Compound 73, 2-chloro-N-{3-[tetrahydropyran-4-yl(pyridin-3-yl)methoxy]-quinoxalin-2-yl}benzenesulfonamide], the IC50 was under 1000 nM.

Regarding `COc1cncc(C(Oc2nc3ccccc3nc2NS(=O)(=O)c2ccccc2Cl)C(F)(F)F)c1` (stereo not drawn) [Compound 71, 2-chloro-N-{3-[2,2,2-trifluoro-1-(5-methoxypyridin-3-yl)-ethoxy]quinoxalin-2-yl}benzenesulfonamide], the 50% inhibitory concentration (IC50) was under 1000 nM.

As for `Cc1cc(S(=O)(=O)Nc2nc3ccccc3nc2OC(c2cccnc2)C(F)(F)F)c(C)s1` (stereo not drawn) [Compound 162, 2,5-dimethyl-N-{3-[2,2,2-trifluoro-1-(pyridin-3-yl)ethoxy]-quinoxalin-2-yl}thiophene-3-sulfonamide], the IC50 was under 1000 nM.

For `CCCS(=O)(=O)Nc1nc2ccccc2nc1OC(C(F)(F)F)C1(F)CCN(S(C)(=O)=O)CC1` (stereo not drawn) [Compound 355, N-{3-[2,2,2-trifluoro-1-(4-fluoro-1-methanesulfonylpiperidin-4-yl)ethoxy]quinoxalin-2-yl}propane-1-sulfonamide], the IC50 is under 1000 nM.

With `Cc1nn(C)c(Cl)c1S(=O)(=O)Nc1nc2ccccc2nc1OC(c1cncn1C)C(F)(F)F` (stereo not drawn) [Compound 170, 5-chloro-1,3-dimethyl-N-{3-[2,2,2-trifluoro-1-(1-methyl-1H-imidazol-5-yl)ethoxy]quinoxalin-2-yl}-1H-pyrazole-4-sulfonamide], the concentration for half-maximal inhibition (IC50) is under 1000 nM.

Regarding `CC1(C(Oc2nc3ccccc3nc2NS(=O)(=O)c2ccccc2Cl)C(F)(F)F)CCOCC1` (stereo not drawn) [Compound 121, 2-chloro-N-{3-[2,2,2-trifluoro-1-(4-methyltetrahydro-2H-pyran-4-yl]ethoxy}quinoxalin-2-yl)benzenesulfonamide], the IC50 is under 1000 nM.

On to `Cc1ccc(S(=O)(=O)Nc2nc3ccccc3nc2OCc2ccc3ccccc3c2)cc1` [Compound 13, N-{3-[(2-naphthyl)methoxy]quinoxalin-2-yl}-4-toluenesulfonamide], for which the IC50 is 1000 to 10000 nM.

For the compound `CCCNS(=O)(=O)Nc1nc2ccccc2nc1OC(c1ccc(C#N)cc1)C(F)(F)F` (stereo not drawn) [Compound 292, N-{3-[1-(4-cyanophenyl)-2,2,2-trifluoroethoxy]quinoxalin-2-yl}-N′-propyl-sulfuric diamide], the concentration for half-maximal inhibition (IC50) is under 1000 nM.

Regarding `O=S(=O)(Nc1nc2ccccc2nc1OC(c1cccnc1)C(F)(F)F)C1CCCCC1` (stereo not drawn) [Compound 183, N-{3-[2,2,2-trifluoro-1-(pyridin-3-yl)ethoxy]quinoxalin-2-yl}cyclohexanesulfonamide], the 50% inhibitory concentration (IC50) was under 1000 nM.

In the case of `CCCS(=O)(=O)Nc1nc2ccccc2nc1OC(c1ccc(Cl)cc1)C(F)(F)F` (stereo not drawn) [Compound 302, N-{3-[1-(4-chlorophenyl)-2,2,2-trifluoroethoxy]quinoxalin-2-yl}propane-1-sulfonamide], the IC50 is under 1000 nM.

Take `O=S(=O)(Nc1nc2ccccc2nc1OCc1ccc2ccccc2c1)c1cc(Cl)ccc1Cl` [Compound 28, 2,5-dichloro-N-{3-[(2-naphthyl)methoxy]quinoxalin-2-yl}-benzenesulfonamide]: the 50% inhibitory concentration (IC50) is under 1000 nM.

As to `Cc1ccc(C(Oc2nc3ccccc3nc2NS(=O)(=O)CC2CC2)C(F)(F)F)cn1` (stereo not drawn) [Compound 305, 1-cyclopropyl-N-{3-[2,2,2-trifluoro-1-(6-methylpyridin-3-yl)ethoxy]quinoxalin-2-yl}methanesulfonamide], the IC50 is under 1000 nM.

With `CCCS(=O)(=O)Nc1nc2ccccc2nc1O[C@H](c1cccc(C#N)c1)C(F)(F)F` [Compound 349, (R)—N-{3-[2,2,2-trifluoro-1-(3-cyanophenyl)ethoxy]-quinoxalin-2-yl}propane-1-sulfonamide], the IC50 was under 1000 nM.

Turning to `Cc1noc(C)c1S(=O)(=O)Nc1nc2ccccc2nc1OC(C1CCSCC1)C(F)(F)F` (stereo not drawn) [Compound 131, 3,5-dimethyl-N-{3-[2,2,2-trifluoro-1-(tetrahydro-2H-thiopyran-4-yl)ethoxy]quinoxalin-2-yl}isoxazole-4-sulfonamide], the IC50 was under 1000 nM.

Consider `COc1ccc(COc2nc(Cl)cnc2NS(=O)(=O)c2cccc(Cl)c2Cl)cc1` [Compound 2], for which the IC50 lay within 1000 to 10000 nM.
